The structures appear in SMILES notation. Several values for one entry are separate records, joined by “and”; a condition that tells them apart may be missing. Equal values may be shown once. Toxic doses and inconclusive results are not listed.

Drawing on PubChem BioAssay AID330 (DTP/NCI, 2004), this text covers T/C for 21 molecules.

The test concerns P388 leukemia ip, CD2F1 mice, survival T/C. Put plainly: NCI In Vivo Anticancer Drug Screen. Data for tumor model P388 Leukemia (intraperitoneal) in CD2F1 (CDF1) mice. Conditions: endpoint: median survival time, higher = longer survival. An outline of the steps:
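Mice carrying the transplanted tumor received test compound or vehicle. Survival was recorded in each group, and the value is the treated-group measurement divided by that of the vehicle-treated control group.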

Setting [1] is: dose: 60.0 mg/kg/injection, schedule: Q01DX005 (ip), vehicle: saline with Tween-80.
The mark [2] stands for this setting: dose: 120.0 mg/kg/injection, schedule: Q01DX005 (ip), vehicle: saline with Tween-80.
[3] abbreviates: dose: 240.0 mg/kg/injection, schedule: Q01DX005 (ip), vehicle: saline with Tween-80.
Where [4] appears, read: dose: 50.0 mg/kg/injection, schedule: Q01DX005 (ip), vehicle: saline with Tween-80.
Where [5] appears, read: dose: 100.0 mg/kg/injection, schedule: Q01DX005 (ip), vehicle: saline with Tween-80.
The mark [6] stands for this setting: dose: 200.0 mg/kg/injection, schedule: Q01DX005 (ip), vehicle: saline with Tween-80.

As to `O=C(CNSc1ccc([N+](=O)[O-])cc1[N+](=O)[O-])OCc1ccccc1`, the T/C runs as follows: (dose: 50.0 mg/kg/injection, schedule: Q01DX005 (ip), vehicle: saline + Tween-80 + alcohol) 100 % of control; (dose: 100.0 mg/kg/injection, schedule: Q01DX005 (ip), vehicle: saline + Tween-80 + alcohol) 106 % of control; (dose: 200.0 mg/kg/injection, schedule: Q01DX005 (ip), vehicle: saline + Tween-80 + alcohol) 97 % of control.
As to `O=C1NNC(=O)c2ccccc2C(=O)S1`, the T/C is, setting by setting: under setting [1], 102 % of control; under setting [2], 101 % of control; under setting [3], 97 % of control.
Consider `COc1cc(C(C)=O)c(C2=NC(C)(C)CO2)cc1C`, for which the T/C was 101 % of control under setting [4], 98 % of control under setting [5] and 97 % of control under setting [6].
In the case of `C[C@H]1C(=O)CCC2[C@]3(C)CC4OC(=O)C5(CC[C@@]6(C)CCC(C)(C)CC6C45C)C3CC[C@@]21C` (stereo not given in full), under “dose: 8.25 mg/kg/injection, schedule: Q01DX005 (ip), vehicle: Klucel (hydroxypropylcellulose) (HPC)”, the T/C was 93 % of control.
For the molecule `O=C(O)C1C2OC3C(OC(=O)C31)C2Br` (stereo not given), the T/C was 100 % of control under setting [4], 94 % of control under setting [5] and 103 % of control under setting [6].
As for `C[C@@]12CCC[C@@H]1OC(=O)C2`, the T/C under setting [4] is 98 % of control.
On to `O=N[O-].O=N[O-].O=N[O-].[Co+3].[NH-]CC[N-]CC[NH-]`, for which the T/C (dose: 12.5 mg/kg/injection, schedule: Q01DX009 (ip), vehicle: saline with Tween-80) is 95 % of control; the T/C (dose: 25.0 mg/kg/injection, schedule: Q01DX009 (ip), vehicle: saline with Tween-80) is 104 % of control; the T/C (dose: 50.0 mg/kg/injection, schedule: Q01DX009 (ip), vehicle: saline with Tween-80) was 114 % of control.
As to `[Cl][Pt+2][Cl].[NH-]C1CCCC1.[NH-]C1CCCC1`, the T/C is 156 % of control and 169 % of control (dose: 20.0 mg/kg/injection, schedule: Q01DX009 (ip), vehicle: Klucel (hydroxypropylcellulose) (HPC)); 156 % of control and 168 % of control and 175 % of control (dose: 40.0 mg/kg/injection, schedule: Q01DX009 (ip), vehicle: Klucel (hydroxypropylcellulose) (HPC)); 179 % of control and 193 % of control and 220 % of control (dose: 80.0 mg/kg/injection, schedule: Q01DX009 (ip), vehicle: Klucel (hydroxypropylcellulose) (HPC)); 182 % of control and 233 % of control (dose: 160.0 mg/kg/injection, schedule: Q01DX009 (ip), vehicle: Klucel (hydroxypropylcellulose) (HPC)); 110 % of control and 186 % of control and 229 % of control (dose: 320.0 mg/kg/injection, schedule: Q01DX009 (ip), vehicle: Klucel (hydroxypropylcellulose) (HPC)).
As to `CCOP(=O)(O)OCC.[Y]`, the T/C runs as follows: (dose: 100.0 mg/kg/injection, schedule: Q04DX003 (ip), vehicle: saline with Tween-80) 93 % of control; (dose: 200.0 mg/kg/injection, schedule: Q04DX003 (ip), vehicle: saline with Tween-80) 100 % of control; (dose: 400.0 mg/kg/injection, schedule: Q04DX003 (ip), vehicle: saline with Tween-80) 111 % of control.
Consider `O=C(N/N=C/c1cccc(O)c1)C(=O)N/N=C/c1cccc(O)c1`, for which the T/C (dose: 50.0 mg/kg/injection, schedule: Q01DX009 (ip), vehicle: water) is 101 % of control; the T/C (dose: 100.0 mg/kg/injection, schedule: Q01DX009 (ip), vehicle: water) is 100 % of control; the T/C (dose: 200.0 mg/kg/injection, schedule: Q01DX009 (ip), vehicle: water) was 102 % of control.
`O=C1CCCc2c1ccn2Cc1ccccc1`: the T/C reads like this: (dose: 25.0 mg/kg/injection, schedule: Q04DX003 (ip), vehicle: Klucel (hydroxypropylcellulose) (HPC)) 105 % of control; (dose: 50.0 mg/kg/injection, schedule: Q04DX003 (ip), vehicle: Klucel (hydroxypropylcellulose) (HPC)) 100 % of control; (dose: 100.0 mg/kg/injection, schedule: Q04DX003 (ip), vehicle: Klucel (hydroxypropylcellulose) (HPC)) 100 % of control; (dose: 200.0 mg/kg/injection, schedule: Q04DX003 (ip), vehicle: Klucel (hydroxypropylcellulose) (HPC)) 99 % of control.
`COc1cccc2c1C(=O)c1c(O)c3c(c(O)c1C2=O)CC(O)(C(C)O)CC3OC1CCN(c2ccccc2)CC(C)O1` (stereo not given): the T/C runs as follows: (dose: 3.13 mg/kg/injection, schedule: Q04DX003 (ip), vehicle: distilled water + Tween-80) 103 % of control; (dose: 6.25 mg/kg/injection, schedule: Q04DX003 (ip), vehicle: distilled water + Tween-80) 100 % of control; (dose: 12.5 mg/kg/injection, schedule: Q04DX003 (ip), vehicle: distilled water + Tween-80) 108 % of control; (dose: 25.0 mg/kg/injection, schedule: Q04DX003 (ip), vehicle: distilled water + Tween-80) 105 % of control; (dose: 50.0 mg/kg/injection, schedule: Q04DX003 (ip), vehicle: distilled water + Tween-80) 104 % of control; (dose: 100.0 mg/kg/injection, schedule: Q04DX003 (ip), vehicle: distilled water + Tween-80) 105 % of control. The T/C is 124 % of control (dose: 200.0 mg/kg/injection, schedule: Q04DX003 (ip), vehicle: distilled water + Tween-80) and 101 % of control (dose: 400.0 mg/kg/injection, schedule: Q04DX003 (ip), vehicle: distilled water + Tween-80).
For the molecule `CN1CCN(CC(O)Cn2c(=O)c3c(nc(N4CCN(C)CC4)n3C)n(C)c2=O)CC1` (stereo not given), the T/C was 87 % of control (dose: 50.0 mg/kg/injection, schedule: Q01DX009 (ip), vehicle: Klucel (hydroxypropylcellulose) (HPC)); 102 % of control (dose: 100.0 mg/kg/injection, schedule: Q01DX009 (ip), vehicle: Klucel (hydroxypropylcellulose) (HPC)); 105 % of control (dose: 200.0 mg/kg/injection, schedule: Q01DX009 (ip), vehicle: Klucel (hydroxypropylcellulose) (HPC)).
Regarding `COc1ccc(-c2coc3c4c(ccc3c2=O)OC(C)(C)C=C4)cc1`, the T/C was 101 % of control under setting [4], 99 % of control under setting [5] and 100 % of control under setting [6].
`O=C1CN(C2OC(CO)C(O)C2O)C(=O)NC1=O` (stereo not given): the T/C runs as follows: (dose: 25.0 mg/kg/injection, schedule: Q01DX005 (ip), vehicle: saline) 112 % of control; (dose: 50.0 mg/kg/injection, schedule: Q01DX005 (ip), vehicle: saline) 113 % of control; (dose: 50.0 mg/kg/injection, schedule: Q01DX005 (ip), vehicle: suspension in saline) 100 % of control; (dose: 100.0 mg/kg/injection, schedule: Q01DX005 (ip), vehicle: saline) 99 % of control and 116 % of control; (dose: 100.0 mg/kg/injection, schedule: Q01DX005 (ip), vehicle: suspension in saline) 107 % of control; (dose: 200.0 mg/kg/injection, schedule: Q01DX005 (ip), vehicle: saline) 116 % of control. The T/C (dose: 200.0 mg/kg/injection, schedule: Q01DX005 (ip), vehicle: suspension in saline) is 109 % of control and the T/C (dose: 400.0 mg/kg/injection, schedule: Q01DX005 (ip), vehicle: suspension in saline) is 116 % of control.
As for `Cc1ccc2c(c1)[C@]1(C)O[C@@H](C=C[C@@H]1O)O2`, the T/C (dose: 100.0 mg/kg/injection, schedule: Q01DX001 (ip), vehicle: Klucel (hydroxypropylcellulose) (HPC)) was 104 % of control and the T/C (dose: 200.0 mg/kg/injection, schedule: Q01DX001 (ip), vehicle: Klucel (hydroxypropylcellulose) (HPC)) is 102 % of control.
Take `CCCC[N+](CCCC)(CCCC)CCCC.O=C([O-])[O-].O=C([O-])[O-].[Co+3].[NH-]CC[NH-]`: the T/C is, setting by setting: (dose: 50.0 mg/kg/injection, schedule: Q01DX009 (ip), vehicle: suspension in saline) 113 % of control and 123 % of control; (dose: 100.0 mg/kg/injection, schedule: Q01DX009 (ip), vehicle: suspension in saline) 120 % of control.
`CNCCCC1c2ccccc2C=Cc2ccccc21`: the T/C was 100 % of control (dose: 6.25 mg/kg/injection, schedule: Q01DX009 (ip), vehicle: saline) and 90 % of control (dose: 12.5 mg/kg/injection, schedule: Q01DX009 (ip), vehicle: saline).
For `O=CNc1cccc(NC=O)c1`, the T/C is 111 % of control (dose: 25.0 mg/kg/injection, schedule: Q01DX009 (ip), vehicle: distilled water + Tween-80); 100 % of control (dose: 50.0 mg/kg/injection, schedule: Q01DX009 (ip), vehicle: distilled water + Tween-80); 100 % of control (dose: 100.0 mg/kg/injection, schedule: Q01DX009 (ip), vehicle: distilled water + Tween-80); 100 % of control (dose: 200.0 mg/kg/injection, schedule: Q01DX009 (ip), vehicle: distilled water + Tween-80).
As for `O=C(/C=C/c1cccc([N+](=O)[O-])c1)Nc1cccc(S(=O)(=O)F)c1`, the T/C under setting [1] was 102 % of control, the T/C under setting [2] is 93 % of control and the T/C under setting [3] is 91 % of control.
The corresponding values for `OC(CCCCOc1ccccc1)(c1ccccc1)c1ccccc1` are 100 % of control, 101 % of control and 101 % of control.
